How the values were obtained:
[1] = Example 1: flush rating (Global Flush Severity Scale) after DMF without aspirin, with swallowed aspirin or with intraoral aspirin; type: in vivo, human; details: MS patients
Protocol: Seven human patients with multiple sclerosis who were already taking dimethyl fumarate and had experienced flushing side effects from dimethyl fumarate were recruited for this study. […] In Period I, each patient was given their standard dose of 240 mg dimethyl fumarate orally. Each patient was asked to rate his or her flush on the Global Flush Severity Scale (GFSS) (see Paolini et al. Int. J. Clin. Pract. 62(6):896-904 (2008)), when the flush completely resolved. The Global Flushing Severity Score measures, overall, in the previous 24 hours, how each patient rates the flushing symptoms, including redness, warmth, tingling, and itchiness of the skin. […] After the flush completely resolved, then each patient recorded his or her GFSS flush rating. Not until at least two days later did Period III start. At Period III, each patient was asked to not swallow the orally administered aspirin (162 mg) but to allow the aspirin to be absorbed through the oral mucosa. The aspirin was in powdered form and the remaining aspirin in the mouth was washed out with water. Afterwards, 240 mg of dimethyl fumarate was swallowed with a glass of water. Still, the flush was rated (GFSS) after it was resolved.

[2] = Example 2: flushing assessment in crossover study, VTS-72 vs Tecfidera; type: in vivo, human; details: Example 2 conclusion, co-administration of aspirin
Protocol: This was a single center, pilot, comparative bioavailability, open-label, randomized, single-dose, 2-period, 2-sequence, crossover study under fasting conditions. A total of 12 healthy adult male or female volunteers were included in this pilot study. For each period, subjects were confined from at least 10 hours before dosing until 12 hours post-dose. There was a washout of 7 days or more between doses. The washout period could be increased for logistical considerations. Participation of each subject in this study lasted approximately 9 days. Subjects were administered each treatment according to the 2-period, 2-sequence, block randomization scheme.
Treatment A: Subjects were required not to wear dentures or to remove their tongue piercing at the time of dosing. The delayed-release capsules were placed on the subject's tongue. Subjects were instructed to suck the delayed-release capsule until the acetylsalicylic acid coating was dissolved or up to a maximum of 1 minute after the delayed-release capsule had been placed on the subject's tongue. […]
Flushing (including redness, warmth, tingling, and itchiness of the skin) was assessed at 0.5, 1, 1.5, 2, 2.5, 3, 3.5, and 4 hours post-dose using the question and the rating scale presented in Section—Flushing Assessment below. […] Flushing symptoms were recorded as adverse events.
Flushing was assessed using the question below. […]

[3] = Example 2: comparative bioavailability, monomethyl fumarate plasma pharmacokinetics; type: in vivo, human; details: normalized to 180 mg DMF
Protocol: The delayed-release capsules were placed on the subject's tongue. Subjects were instructed to suck the delayed-release capsule until the acetylsalicylic acid coating was dissolved or up to a maximum of 1 minute after the delayed-release capsule had been placed on the subject's tongue. The delayed-release capsule should not be chewed, bitten, or swallowed during that 1-minute period or until the coating is dissolved; only the saliva could be swallowed. The subject was instructed to give a hand sign once the acetylsalicylic acid coating was dissolved (the capsule should feel and taste different). […]

[4] = Example 3: flushing side effect, VTS-72 (205 mg DMF) vs Tecfidera; type: in vivo, human; details: Example 3, co-administration of aspirin
Protocol: Flushing (including redness, warmth, tingling, and itchiness of the skin) was assessed at 0.5, 1, 1.5, 2, 2.5, 3, 3.5, and 4 hours post-dose using the question and the rating scale presented in Section—Flushing Assessment below. Half grades were not assigned. Flushing symptoms were recorded as adverse events.
Flushing was assessed using the question below. The question was asked by the clinical staff: • Question 1: Overall, at this moment, how would you rate your flushing symptoms (including redness, warmth, tingling, and itchiness of the skin)? Score from 0 to 10 (none 0, mild 1 to 3, moderate 4 to 6, severe 7 to 9, extreme 10).
16 healthy individuals were enrolled for this study.

[5] = pretreatment with 325 mg aspirin for 4 days; Sheikh et al., Clin Ther. 2013; cited from earlier work

impact of co-administration of aspirin on the Cmax of DMF [3]: did not have significant impact
Compound: CC(=O)Oc1ccccc1C(=O)O [aspirin, acetylsalicylic acid]
reduction of severity of flush (GFSS) as compared to Period I ([1]; Period II: 162 mg aspirin orally swallowed followed by 240 mg dimethyl fumarate): 33% | reduction of severity of flush (GFSS) as compared to Period I ([1]; Period III: 162 mg aspirin absorbed through the oral mucosa, then 240 mg dimethyl fumarate): 52% | reduction of the flushing side effect [2]: more than 35% | reduction of the flushing side effect [4]: about 61% | effect of aspirin pretreatment on the pharmacokinetic profile of DMF [5]: did not affect

From patent publication US20210251910A1, “FUMARIC ACID COMPOSITIONS WITH INCREASED BIOAVAILABILITY AND REDUCED SIDE EFFECTS” (Vitalis LLC, priority 2018, published 2021)
